In brackets after ≈: the same amount, converted by molar mass. Where two headings read alike, the source gives them in different places. Numbered stars: 1 amine (or outer) side, 2 acyl side, 3 side chain; on linkers, the order of the positions; unused ones are H or OH. Bridge positions count the residues as written; N and C are the ends. Square brackets hold non-standard residues; d marks the D form. Peptide text beside a SMILES is read from it. I, II: the chains in the order shown. Actinocin(9to1) = Cc1c2oc3c(C)ccc(C(=O)[*:1])c3nc-2c(C(=O)[*:2])c(N)c1=O; NMeV = CN[C@H](C(=O)O)C(C)C; Sar = CNCC(=O)O
How the values were obtained:
Bacillus subtilis = experiment: Comparative antibacterial activity (MIC), agar dilution method, measured simultaneously; assay type: cell-based; settings: for MIC: read-out: Antibacterial activity [B] (minimum inhibition concentration, MIC)
Protocol: (§1) A comparative study of XK-99 with these antibiotics was conducted according to several procedures.
(§2) ^1 Antibacterial activities (minimum inhibition concentration, MIC,
(§3) γ/ml) of the individual antibiotics measured simultaneously
according to agar dilution method against [A] Staphylococcus aureus and
[B]Bacillus subtilis, and [C] ratio of [A] to
^2 Rf values of the individual antibiotics on paper chromatography, […]

Staphylococcus aureus = experiment: as above; assay type: cell-based; settings: for Antibacterial activity [C], ratio of [A] to [B]: MIC Staphylococcus aureus / MIC Bacillus subtilis; for MIC / Antibacterial activity [A] (minimum inhibition concentration, MIC): Staphylococcus aureus; for MIC: read-out: Antibacterial activity [A] (minimum inhibition concentration, MIC)
Protocol: as §1, §2, §3
according to agar dilution method against [A] Staphylococcus aureus and […]

[1] = agar dilution method, measured simultaneously

Compound | MIC (Bacillus subtilis) [µg/mL] | Antibacterial activity [C], ratio of [A] to [B] (Staphylococcus aureus) | MIC (Staphylococcus aureus) [µg/mL] | MIC (Bacillus subtilis; [1]) [µg/mL] | MIC (Staphylococcus aureus; [1]) [µg/mL] | Antibacterial activity [B] (minimum inhibition concentration, MIC) (Bacillus subtilis; [1]) [µg/mL] | Antibacterial activity [A] (minimum inhibition concentration, MIC) (Staphylococcus aureus; [1]) [µg/mL]
Cc1c2oc3c(C)ccc(C(=O)N[C@@H]4C(=O)N[C@H](C(C)C)C(=O)N5CCC[C@H]5C(=O)N(C)CC(=O)N(C)[C@@H](C(C)C)C(=O)O[C@@H]4C)c3nc-2c(C(=O)N[C@@H]2C(=O)N[C@H](C(C)C)C(=O)N3CCC[C@H]3C(=O)N(C)CC(=O)N(C)[C@@H](C(C)C)C(=O)O[C@@H]2C)c(N)c1=O [Actinomycin D] (I: T[dV]P[Sar][NMeV] / II: T[dV]P[Sar][NMeV]; ester I:1-I:C, II:1-II:C; linker I:N-II:N via Actinocin(9to1)) | 0.021 (≈ 0.0167 µM) | 4 | 0.084 (≈ 0.0669 µM) |  |  |  | 
COc1cccc2c1C(=O)c1c(O)c3c(c(O)c1C2=O)C[C@@](O)(C(=O)CO)C[C@@H]3O[C@H]1C[C@H](N)[C@H](O)[C@H](C)O1 [Adriamycin] |  | 8 |  | 0.7 (≈ 1.29 µM) | 5.6 (≈ 10.3 µM) |  | 
COc1cccc2c1C(=O)c1c(O)c3c(c(O)c1C2=O)C[C@@](O)(C(C)=O)C[C@@H]3O[C@H]1C[C@H](N)[C@H](O)[C@H](C)O1 [Daunomycin] |  | 4 |  | 0.7 (≈ 1.33 µM) | 2.8 (≈ 5.31 µM) |  | 
CO[C@H]1/C=C/O[C@@]2(C)Oc3c(C)c(O)c4c(c3C2=O)C(=O)C=C(NC(=O)/C(C)=C\C=C\[C@H](C)[C@H](O)[C@@H](C)[C@@H](O)[C@@H](C)[C@H](OC(C)=O)[C@@H]1C)C4=O [Rifamycin S] |  | < 0.05 |  |  |  | 0.09 | < 0.0045
Acrasinomycin |  | 4 |  |  |  | 0.17 | 0.68
Halomicin B |  | < 0.05 |  |  |  | 0.09 | < 0.0045

— patent publication US4162305A, “Antibiotic XK-99 and process for production thereof” (Abbott Laboratories, priority 1977, dated 1979)
